Values of other authors in patent US20080153788A1, “NOVEL COMPOSITION TO INCREASE MUSCLE STRENGTH” (ORAL DELIVERY TECHNOLOGIES, priority 2006, published 2008).

Key:
[1] = for injection
[2] = humans; prior-art description

Row | SMILES | solubility in oily media [1] | period over which concentration declines after the peak [2] | time to concentration peak after administration [2]
1 | CCCCCCCCCCC(=O)O[C@H]1CC[C@H]2[C@H]3[C@H](CC[C@]12C)[C@H]1CCC(=O)C=C1C[C@H]3C [MENT undecanoate, (7α,17β)-7-methyl-17-[(1-α-oundecyl)oxy]estr-4en-3one] | good solubility | – | –
2 | C[C@]12CC[C@H]3[C@@H](CCC4=CC(O)CC[C@@]43C)[C@@H]1CC[C@@H]2O (stereo partly drawn) [4-androstene-3,17β-diol] | – | 3 to 4 h | ≤ 90 min
